Laboratory results: publication PMC3380012, “Wild-Type Phosphoribosylpyrophosphate Synthase (PRS) from Mycobacterium tuberculosis: A Bacterial Class II PRS?” (PLoS ONE, 2012)
“And” between values parts separate entries of the source, which are not always exact repeats. Equal entries are not always repeated. “Also recorded” adds a separate entry of the source. Where two headings read alike, the source gives them in different places.

Key:
[1] = target: T1, MtPRS (Mycobacterium tuberculosis phosphoribosylpyrophosphate synthase) (Mycobacterium tuberculosis, UniProt P9WKE3); test: biochemical
M. tuberculosis PRS [2] = settings: cited from earlier work; for IC50: read-out: IC50 (inhibition of MtPRS activity)
MtPRS [3] = target: T2, MtPRS (Mycobacterium tuberculosis, UniProt P9WKE3); test: Intrinsic tryptophan fluorescence (ITF) titration, binary complex formation at equilibrium; assay type: binding; settings: for Kd: Tris HCl 50 mM pH 7.5, MgCl2 20 mM, read-out: KD (hyperbolic binding to free MtPRS); for change in intrinsic protein fluorescence upon titration of free MtPRS: absence of second substrate
Procedure: Intrinsic tryptophan fluorescence titration was carried out to assess binary complex formation at equilibrium between MtPRS and either substrate(s) or product(s) at 25°C [43]. […] Fluorescence titrations were performed by making microliter additions of substrates and products at varying stock concentrations to 1 mL of MtPRS 3 µM, with a maximum dilution of 6%. […] After each ligand titration, the mixture was stirred for 3 minutes to ensure equilibrium binding prior to ITF measurements. […] Control experiments were performed in the same conditions in the absence of MtPRS to verify any inner filter effect, and the values found in the control experiments were subtracted from those obtained in the presence of the enzyme. No corrections for effects of protein dilution on ITF upon addition of buffer A containing MgCl2 20 mM to MtPRS were necessary. Data from equilibrium fluorescence spectroscopy were fitted to Eq. (5) for hyperbolic binding isotherms, in which F is the observed fluorescence signal; F max is the maximal fluorescence intensity; and KD represents the dissociation constant for binding of substrate and/or product to MtPRS. Sigmoidal binding data were fitted Eq. (6), in which F is the observed fluorescence signal, F max is the maximal fluorescence intensity, n is the Hill coefficient, and K’ is a constant comprising interaction factors and the intrinsic dissociation constant. [drawing 5] (5) [drawing 6] (6)

M. tuberculosis PRS [4] = settings: ref Alderwick, et al. 2011 [30], cited from earlier work
[5] = test system: Nc1nc2c(ncn2[C@@H]2O[C@H](COP(=O)(O)OP(=O)(O)OP(=O)(O)O)[C@@H](O)[C@H]2O)c(=O)[nH]1; test: purified protein, by the assay type; settings: pH 8.0
[6] = test system: O=P(O)(O)OC[C@H]1O[C@H](O)[C@H](O)[C@@H]1O; test: purified protein, by the assay type; settings: pH 8.0
[7] = test system: O=c1ccn([C@@H]2O[C@H](COP(=O)(O)OP(=O)(O)OP(=O)(O)O)[C@@H](O)[C@H]2O)c(=O)[nH]1; test: purified protein, by the assay type; settings: pH 8.0
MtPRS [8] = target: T2, MtPRS; test: MtPRS inhibition assays (coupled assay, fixed R5P and ATP); assay type: biochemical
Procedure: (§1) All chemicals were purchased from Sigma Aldrich. All enzyme activity assays were performed in triplicate. MtPRS activity was measured by a coupled continuous spectrophotometric assay in quartz cuvettes using a UV-visible Shimadzu spectrophotometer UV2550 equipped with a temperature-controlled cuvette holder. […] Homogeneous recombinant MtOPRT was obtained as described elsewhere. […] The reaction mixture (500 µL) contained 1.8 U MtOPRT, 300 µM OA, 20 mM MgCl2, in Tris HCl 50 mM pH 8.0. Reaction was started by addition of MtPRS (0.24–1.2 µM). One unit of MtPRS is defined as the amount of enzyme necessary to convert 1 µmol of R5P to PRPP per min. Effect of Pi over MtPRS activity was assessed by varying Pi concentration (10–50 mM) in the reaction conditions described above.
All measurements were performed in triplicate. The concentration of inhibitor required to reduce the fractional enzyme activity to half of its initial value in the absence of inhibitor (IC50) was obtained from fitting the data to Eq. (4) for partial inhibition, in which y is the fractional activity of the enzyme in the presence of inhibitor at concentration [I]; y (max) is the maximum value of y observed at [I] = 0; and y min is the minimum limiting value of y at high inhibitor concentrations. [drawing 4] (4)

[9] = target: T3, MtOPRT (M. tuberculosis orotate phosphoribosyltransferase) (Mycobacterium tuberculosis, UniProt P9WHK9); test: Control measurement of coupled enzyme MtOPRT activity in presence of donors and inhibitors; assay type: biochemical; settings: compounds present in the assay mixtures of the coupled assays; data not shown
T3 construct: made in house
T3 sequence (P9WHK9 whole entry): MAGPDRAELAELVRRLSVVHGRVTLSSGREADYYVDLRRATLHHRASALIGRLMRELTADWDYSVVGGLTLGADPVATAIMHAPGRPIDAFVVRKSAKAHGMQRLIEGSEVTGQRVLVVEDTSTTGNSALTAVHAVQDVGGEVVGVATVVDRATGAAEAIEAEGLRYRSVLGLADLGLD
Procedure: as §1
Accordingly, the effects of the alternative diphosphoryl group donors, or nucleoside 5′-diphosphate or monophosphate inhibitors, were solely due to changes in MtPRS enzyme activity.

S. typhimurium PRS = test system: S. typhimurium PRS; set-up: method as in PMID 211378; settings: cited from earlier work
[10] = target: T1, MtPRS (Mycobacterium tuberculosis phosphoribosylpyrophosphate synthase); settings: diphosphoryl donor varied, R5P fixed at 60 µM, 25°C
[11] = target: the molecule itself; test: cross-linking; glutaraldehyde vapour cross-linking, 0.3 mg/mL MtPRS in Tris HCl 50 mM pH 7.5 with ADP 5 mM, with or without Pi 50 mM, 30°C, 12% SDS-PAGE
[12] = target: the molecule itself; test: cross-linking; glutaraldehyde vapour cross-linking, 0.3 mg/mL MtPRS in Tris HCl 50 mM pH 7.5 with R5P 5 mM, with or without Pi 50 mM, 30°C, 12% SDS-PAGE
[13] = target: the molecule itself; test: cross-linking; glutaraldehyde vapour cross-linking, 0.3 mg/mL MtPRS in Tris HCl 50 mM pH 7.5 with ATP 5 mM, with or without Pi 50 mM, 30°C, 12% SDS-PAGE
[14] = target: the molecule itself; test: cross-linking; glutaraldehyde vapour cross-linking, 0.3 mg/mL apo MtPRS in Tris HCl 50 mM pH 7.5, with or without Pi 50 mM, 30°C, different incubation times, 12% SDS-PAGE
[15] = target: the molecule itself; test: as above; remark: listed apart in the source
[16] = 37°C, KH2PO4 50 mM pH 8.0, ref Lucarelli, et al. 2010 [31]
[17] = read-out: IC50 (partial inhibition of MtPRS activity)
[18] = ref Lucarelli, et al. 2010 [31]

In the case of `O=P(O)(O)OC[C@H]1O[C@H](O)[C@H](O)[C@@H]1O` [R5P, α-D-ribose 5-phosphate], the Ki [1] is given as 211 µM, the Km (M. tuberculosis PRS [2]; [16]) is given as 71 µM and the kcat (M. tuberculosis PRS [2]; [16]) is given as 37.1 s⁻¹. For the same molecule, the Kd (MtPRS [3]; 25°C, MtPRS 3 µM) was 61 µM, the Km (M. tuberculosis PRS [4]; 37°C, KH2PO4 50 mM pH 8.0) was 8.2 µM and the Vmax (M. tuberculosis PRS [4]; 37°C, KH2PO4 50 mM pH 8.0) was 530 µmol⁻¹ min⁻¹ mg⁻¹. For the same molecule, the kcat (M. tuberculosis PRS [4]; 37°C, KH2PO4 50 mM pH 8.0) was 60.68 s⁻¹.

For “MtPRS (Mycobacterium tuberculosis phosphoribosylpyrophosphate synthase) (Mycobacterium tuberculosis H37Rv)”, the Km [5] was 37 (±9) µM, the Vmax [5] was 0.237 µmol/min/mg and the kcat [5] was 0.14 ± 0.002 s⁻¹. For the same molecule, the kcat/Km [5] was 3800 ± 900 M⁻¹ s⁻¹, the Km [6] was 14 (±2) µM and the Vmax [6] was 1.41 µmol/min/mg. For the same molecule, the kcat [6] was 0.83 ± 0.04 s⁻¹, the kcat/Km [6] was 59000 ± 8000 M⁻¹ s⁻¹ and the Km [7] was 52 (±7) µM. It also gave a Vmax [7] of 0.264 µmol/min/mg, a kcat [7] of 0.155 s⁻¹ and a kcat/Km [7] of 3000 M⁻¹ s⁻¹.

For `Nc1ncnc2c1ncn2[C@@H]1O[C@H](COP(=O)(O)OP(=O)(O)O)[C@@H](O)[C@H]1O` [ADP, adenosine 5′-diphosphate], the IC50 (MtPRS [8]; [17]) is given as 70 µM, the “effect on MtOPRT enzyme activity” value [9] is given as “did not have any effect” and the IC50 (M. tuberculosis PRS [2]; saturating ATP and non-saturating Pi concentrations) is given as 260 µM. For the same molecule, the IC50 (M. tuberculosis PRS [2]; saturating ATP and saturating Pi concentrations) was 400 µM.

In the case of `O=P(O)(O)OC[C@H]1O[C@H](OP(=O)(O)OP(=O)(O)O)[C@H](O)[C@@H]1O` [PRPP, 5-phospho-α-D-ribose 1-diphosphate], the “change in intrinsic protein fluorescence upon titration of free MtPRS” value (from here on “change … of free MtPRS”) (MtPRS [3]; 25°C, MtPRS 3 µM) is reported as “no intrinsic protein fluorescence change; also recorded: No change in ITF could be detected”.

In the case of `Nc1ncnc2c1ncn2[C@@H]1O[C@H](COP(=O)(O)O)[C@@H](O)[C@H]1O` [AMP], the “K' (sigmoidal binding, Hill equation)” value (MtPRS [3]; 25°C, MtPRS 3 µM, MgCl2 20 mM) is reported as 109 (±3) µM and 109 µM and the Hill coefficient (MtPRS [3]; sigmoidal binding to free MtPRS) is reported as 3.2.

In the case of `O=c1ccn([C@@H]2O[C@H](COP(=O)(O)OP(=O)(O)OP(=O)(O)O)[C@@H](O)[C@H]2O)c(=O)[nH]1` [UTP, uridine 5′-triphosphate], the “activity as alternative substrate, of maximum reported activity using ATP as substrate” value (“activity as alternative substrate” for short) (S. typhimurium PRS) is listed as 3%, the “effect on MtOPRT enzyme activity” value [9] is listed as “did not have any effect” and the “change … of free MtPRS” value (MtPRS [3]; 25°C, MtPRS 3 µM) is listed as “No change in protein fluorescence; also recorded: no change in IFT could be detected”.

For `O=c1ccn([C@@H]2O[C@H](COP(=O)(O)O)[C@@H](O)[C@H]2O)c(=O)[nH]1` [UMP], the IC50 (MtPRS [8]; R5P 60 µM, ATP 300 µM fixed, 0.24 µM MtPRS, no Pi, fit to partial inhibition equation) was 3000 µM and the “effect on MtOPRT enzyme activity” value [9] was “did not have any effect”.

In the case of `Nc1ncnc2c1ncn2[C@@H]1O[C@H](COP(=O)(O)OP(=O)(O)OP(=O)(O)O)[C@@H](O)[C@H]1O` [ATP, adenosine 5′-triphosphate], the “effect on MtOPRT enzyme activity” value [9] is given as “did not have any effect”, the kcat (M. tuberculosis PRS [2]; [16]) is given as 34.6 (±3) s^−1 and the S0.5 (M. tuberculosis PRS [2]; [18]) is given as 260 (±50) µM. The “n (Hill coefficient)” value (M. tuberculosis PRS [2]; [18]) was 1, the Kd (MtPRS [3]; 25°C, MtPRS 3 µM) was 18 µM and the Vmax (M. tuberculosis PRS [4]; 37°C, KH2PO4 50 mM pH 8.0) was 601 µmol⁻¹ min⁻¹ mg⁻¹. The S0.5 (M. tuberculosis PRS [4]) was 62.65 µM and the “n (Hill coefficient)” value (M. tuberculosis PRS [4]) was 1.68.

In the case of `Nc1ccn([C@@H]2O[C@H](COP(=O)(O)OP(=O)(O)OP(=O)(O)O)[C@@H](O)[C@H]2O)c(=O)n1` [CTP, cytosine 5′-triphosphate], the “activity as alternative substrate” value (S. typhimurium PRS) is listed as 3%, the “effect on MtOPRT enzyme activity” value [9] is listed as “did not have any effect” and the “Vmax (apparent)” value ([10]; pH 8.0, no Pi) is listed as 0.111 (±0.003) µmol^−1 min^−1 mg^−1. For the same molecule, the kcat ([10]; pH 8.0, no Pi) was 0.065 (±0.001) s^−1, the Km ([10]; read-out: KM (apparent), Tris HCl 50 mM pH 8.0, MgCl2 20 mM, no Pi) was 26 µM and the “change … of free MtPRS” value (MtPRS [3]; 25°C, MtPRS 3 µM) was “No change in protein fluorescence; also recorded: no change in IFT could be detected”.

In the case of `O=c1[nH]cnc2c1ncn2[C@@H]1O[C@H](COP(=O)(O)OP(=O)(O)OP(=O)(O)O)[C@@H](O)[C@H]1O` [ITP], the “activity as alternative substrate” value (S. typhimurium PRS) is given as 3%.

For `Nc1nc2c(ncn2[C@@H]2O[C@H](COP(=O)(O)OP(=O)(O)O)[C@@H](O)[C@H]2O)c(=O)[nH]1` [GDP, guanosine 5′-diphosphate], the IC50 (MtPRS [8]; [17]) is given as 900 µM, the “effect on MtOPRT enzyme activity” value [9] is given as “did not have any effect” and the IC50 (M. tuberculosis PRS [2]; in the presence of Pi) is given as over 5000 µM.

In the case of `Nc1nc2c(ncn2[C@@H]2O[C@H](COP(=O)(O)OP(=O)(O)OP(=O)(O)O)[C@@H](O)[C@H]2O)c(=O)[nH]1` [GTP, guanosine 5′-triphosphate], the “activity as alternative substrate” value (S. typhimurium PRS) is given as 3%, the “effect on MtOPRT enzyme activity” value [9] is given as “did not have any effect” and the Kd (MtPRS [3]; 25°C, MtPRS 3 µM) is given as 21 µM.

B1: Mycobacterium tuberculosis phosphoribosylpyrophosphate synthase (MtPRS) (enzyme)
chain: MSHDWTDNRKNLMLFAGRAHPELAEQVAKELDVHVTSQDAREFANGEIFVRFHESVRGCDAFVLQSCPAPVNRWLMEQLIMIDALKRGSAKRITAVMPFYPYARQDKKHRGREPISARLIADLLKTAGADRIVTVDLHTDQIQGFFDGPVDHMRGQNLLTGYIRDNYPDGNMVVVSPDSGRVRIAEKWADALGGVPLAFIHKTRDPRVPNQVVSNRVVGDVAGRTCVLIDDMIDTGGTIAGAVALLHNDGAGDVIIAATHGVLSDPAAQRLASCGAREVIVTNTLPIGEDKRFPQLTVLSIAPLLASTIRAVFENGSVTGLFDGDA
notes: also called prsA gene product; Rv1017c
With B1 the “stoichiometry N” value [11] was 4, the “stoichiometry N” value [12] was 6 and the “stoichiometry N” value [13] was 2. The “stoichiometry N” value [14] was 3 and the “stoichiometry N” value [15] was 6.
